Results taken from patent US9169295B2, “Macrocycles and macrocycle stabilized peptides” (Bristol-Myers Squibb Company, priority 2010, dated 2015).
Like-named read-outs stand apart in the source and are kept apart here.

Tests used:
[1] = other bond
[2] = far-UV circular dichroism (CD) spectra with secondary structure estimated by deconvolution (α-helicity of MSP vs linear peptide); format: physicochemical; details: 25° C.
Procedure: To examine the α-helicity of the macrocycle stabilized peptides prepared according to the methods of the present invention, the far-UV circular dichrosim (CD) spectra of linear and macrocyclic peptides were measured and compared. Linear peptide of Example 93 and MSP of Example 93 as dry powder were prepared. A sample of each was weighed into a fresh 20 mL glass vial, and dissolved in anhydrous methanol (B&J), with vortexing for ˜1 min, to yield solutions with concentrations of 200 μM. The concentrations were based on the observed mass of peptide and the respective formula weights. The solutions were transferred to 1.8 mL polypropylene tubes, and centrifuged in a table top microcentrifuge for 5 min at rt and 14,000 rpm to pellet any insoluble material. The supernatants were transferred to clean 1.8 mL tubes for preparing final samples for analysis by circular dichroism (CD). Two sets of samples were prepared, one in 100% methanol at 200 μM peptide, the other in 50% aqueous methanol at 100 μM peptide prepared by adding an equal volume of ddH2O to stock methanol solutions.
Samples were transferred to clean 1 mm quartz cuvettes and CD analysis performed in a JASCO J=815 instrument, and temperature maintained at 25° C. Each peptide sample was scanned from 200-450 nm, using a bandwidth of 1.00 nm, standard sensitivity, data pitch of 0.1 nm, digital integration time of 4.0 sec, a scan speed of 20 nm/min, and 6 acquisitions averaged per sample. Blank solvent samples (100% methanol and 50% aqueous methanol) were recorded simultaneously and subtracted from the peptide spectra prior to final analysis. For calculation of mean residue molar ellipticity (Θ^MRW), the peptide concentration was multiplied by 12 to reflect the number of peptide residues in each molecule. Following blank corrections, the CD data for each peptide in each solvent was corrected for total mean residue ellipticity, and the secondary structure composition estimated by deconvolution using CDPRO module within the JASCO software. Three different algorithms were used for convolution (SELCON, CDSSTR and CONTIN), using the data obtained from 200-240 nm and a 56 protein reference data set. Each algorithm yielded similar distribution of secondary structure elements, and the final results reported as the mean and standard deviation from the three deconvolutions.
The deconvolution algorithms yield secondary structural elements of two types of α-helical structure, two types of […] structure, β-turn structure, and unstructured or random structure. The results reflect the average of summed α-helical forms, summed β-strand forms, the β-turn and unstructured forms from the three algorithms for the peptides in 100% methanol. The overlaid spectra illustrate the difference in signal in the far uv-region (200-240 nm) for the two related peptides in 100% methanol.

[3] = the molecule shown is the open-chain precursor; other bond; 16-membered ring; TfOH; MeNO2; 13.4 mM; 25.0 °C
[4] = 50% aqueous methanol, 100 μM peptide
[5] = 100% methanol, 200 μM peptide, CD 200-240 nm, mean of three deconvolution algorithms
[6] = from (5-(hydroxymethyl)thiazol-2-yl)-Val(D/L)-Ala-Ala-Ala-Ala-Tyr-NH2?, 25-membered ring, TfOH, MeNO2, 6.0 mM, 25.0 °C, 2 steps
[7] = from (5-(hydroxymethyl)thiazol-2-yl)-Val(D/L)-Ala-Ala-Tyr-NH2?, 19-membered ring, TfOH, MeNO2, 11.0 mM, 25.0 °C, 2 steps
[8] = from (5-(hydroxymethyl)thiazol-2-yl)-Val(D/L)-Gly-Tyr-NH2?, 16-membered ring, TfOH, MeNO2, 25.0 °C, 2 steps

C[C@@H]1NC(=O)CNC2=NC=C(Cc3cc(ccc3O)C[C@@H](C(=O)NCC(=O)O)NC(=O)[C@H](C)NC(=O)[C@H](C)NC1=O)S2
ring closure, yield after HPLC ([1]; from (5-(hydroxymethyl)thiazol-2-yl)-Gly-Ala-Ala-Ala-Tyr-Gly-OtBu?, 22-membered ring, TfOH, NMM quench, nitromethane, 11.8 mM, 25.0 °C): 42%

C[C@H](NC(=O)OCC1c2ccccc2-c2ccccc21)C(=O)N[C@@H](C)C(=O)NNC(=O)[C@@H](C)[C@@H](Cc1ccc(O)cc1)C(=O)N[C@@H](C)C(=O)N[C@@H](C)C(=O)NCC(=O)N[C@H]1Cc2ccc(O)c(c2)CC2=CN=C(NCCCNC(=O)[C@H](C)NC(=O)[C@H](C)NC(=O)[C@H](C)NC1=O)S2 [Example 91, C-terminal Macrocycle Peptide]
unstructured conformation [2, 4]: 32% | α-helical structure [2, 4]: 23% | β-structure [2, 4]: 45% | unstructured conformation [2, 5]: 27% | α-helical conformation [2, 5]: 53% | β-structure (β-strand and β-turn conformation) [2, 5]: 22%

COc1ccc2cc1CC1=CN=C(NCC(=O)N[C@@H](C)C(=O)NCC(=O)NCC(=O)N3C[C@H](O)[C@@H](O)[C@H]3C2)S1 [Macrocycle Anisomycin-GGAG-Thia]
ring closure, yield after HPLC ([1]; from (S)-N-(2-(2-((2R,3S,4S)-3,4-Dihydroxy-2-(4-methoxybenzyl)pyrrolidin-1-yl)-2-oxoethylamino)-2-oxoethyl)-2-(2-(5-(hydroxymethyl)thiazol-2-ylamino)acetamido)propanamide?, 22-membered ring): 53.2%

CC[C@H](C)[C@@H]1NC(=O)[C@@H](NC(=O)OCC2c3ccccc3-c3ccccc32)Cc2ccc(OC)c(c2)CC2=CN=C(NCC(=O)NC[C@@H](C(=O)O)NC(=O)[C@H](CCC(=O)OC)NC(=O)CNC1=O)S2 [Macrocycle]
ring closure, yield after HPLC ([1]; from (5S,8S,14S,17S)-8-((S)-sec-butyl)-1-(9H-fluoren-9-yl)-17-((2-((5-(hydroxymethyl)thiazol-2-yl)amino)acetamido)methyl)-14-(3-methoxy-3-oxopropyl)-5-(4-methoxybenzyl)-3,6,9,12,15-pentaoxo-2-oxa-4,7,10,13,16-pentaazaoctadecan-18-oic acid, 26-membered ring, TfOH, NMM quench, nitromethane, 5.57 mM, 25.0 °C): 40.3%

C[C@@H]1NC(=O)CNC2=NC=C(Cc3cc(ccc3O)C[C@@H](C(=O)NCC(=O)O)NC(=O)[C@H](C)NC(=O)[C@H](C)NC1=O)S2 [Macrocycle]
ring closure, yield after HPLC ([1]; from (5-(hydroxymethyl)thiazol-2-yl)-Gly-Ala-Ala-Ala-Tyr-Gly-OtBu?, 22-membered ring, TfOH, NMM quench, nitroethane, 5.7 mM, 25.0 °C): 35%

C[C@@H]1NC(=O)[C@H](C)NC(=O)[C@H](C)NC(=O)[C@@H](N)Cc2ccc(O)c(c2)CC2=CN=C(NCCCNC1=O)S2 [Macrocycle]
ring closure, yield after HPLC ([1]; from Boc-Tyr-Ala-Ala-Ala-NH-(CH2)3-NH-[5-(hydroxymethyl)thiazol-2-yl]?, 24-membered ring, TfOH, NMM quench, nitromethane, 9.9 mM): 15.4%

C[C@H](NC(=O)[C@H](C)NC(=O)CNC(=O)[C@@H]1Cc2ccc(O)c(c2)CC2=CN=C(NCC(=O)N[C@@H](C)C(=O)N[C@@H](C)C(=O)N[C@@H](C)C(=O)N1)S2)C(N)=O [Macrocycle]
ring closure, yield after HPLC ([1]; from (5-(hydroxymethyl)thiazol-2-yl)-Gly-Ala-Ala-Ala-Tyr-Gly-Ala-Ala-NH2?, 22-membered ring, TfOH, NMM quench, nitroethane/TfOH 1:1, 5.4 mM, 25.0 °C): 62%

C[C@@H]1NC(=O)[C@H](C)NC(=O)[C@H](Cc2ccccc2)NC(=O)CNC2=NC=C(Cc3cc(ccc3O)C[C@@H](C(N)=O)NC1=O)S2 [Thia-G-F-A-A-Y—CONH2 (SEQ ID NO. 10) macrocycle]
ring closure, yield after HPLC ([1]; from (5-(hydroxymethyl)thiazol-2-yl)-Gly-Phe-Ala-Ala-Tyr-NH2?, 22-membered ring, TfOH, MeNO2, 11.5 mM, 25.0 °C, 2 steps): 68.5%

CC(C)[C@@H]1NC2=NC=C(Cc3cc(ccc3O)C[C@@H](C(N)=O)NC(=O)[C@H](C)NC(=O)[C@H](C)NC(=O)[C@H](C)NC(=O)[C@H](C)NC1=O)S2 [Thia-V(d)AAAAY]
ring closure, yield after HPLC [1, 6]: 22.3%

CC(C)[C@H]1NC2=NC=C(Cc3cc(ccc3O)C[C@@H](C(N)=O)NC(=O)CNC(=O)[C@H](C)NC(=O)[C@H](C)NC1=O)S2 [Thia-V(d)AAGY Macrocycle]
ring closure, yield after HPLC ([1]; from (5-(hydroxymethyl)thiazol-2-yl)-dVal-Ala-Ala-Gly-Tyr-NH2?, 22-membered ring, TfOH, MeNO2, 6.83 mM, 25.0 °C, 2 steps): 38.7%

CC(C)[C@H]1NC2=NC=C(Cc3cc(ccc3O)C[C@@H](C(N)=O)NC(=O)[C@H](C)NC(=O)[C@H](C)NC1=O)S2 [Thia-V(d)AAY]
ring closure, yield after HPLC [1, 7]: 16.4%

CC(C)[C@H]1NC2=NC=C(Cc3cc(ccc3O)C[C@@H](C(N)=O)NC(=O)CNC1=O)S2 [Thia-V(d)GY]
ring closure, yield after HPLC [1, 8]: 22%

CC(C)[C@@H]1NC2=NC=C(Cc3cc(ccc3O)C[C@@H](C(N)=O)NC(=O)[C@H](C)NC(=O)[C@H](C)NC(=O)[C@H](C)NC(=O)[C@H](C)NC1=O)S2 [Thia-V(l)AAAAY (SEQ ID NO. 12)]
ring closure, yield after HPLC [1, 6]: 35.2%

CC(C)[C@@H]1NC2=NC=C(Cc3cc(ccc3O)C[C@@H](C(N)=O)NC(=O)CNC(=O)[C@H](C)NC(=O)[C@H](C)NC1=O)S2 [Thia-V(l)AAGY (SEQ ID NO. 13) Macrocycle]
ring closure, yield after HPLC ([1]; from (5-(hydroxymethyl)thiazol-2-yl)-Val-Ala-Ala-Gly-Tyr-NH2?, 22-membered ring, TfOH, MeNO2, 6.45 mM, 25.0 °C, 2 steps): 52.7%

CC(C)[C@H]1NC2=NC=C(Cc3cc(ccc3O)C[C@@H](C(N)=O)NC(=O)[C@H](C)NC(=O)[C@H](C)NC1=O)S2 [Thia-V(l)AAY (SEQ ID NO. 11)]
ring closure, yield after HPLC [1, 7]: 11%

CC(C)[C@H]1NC2=NC=C(Cc3cc(ccc3O)C[C@@H](C(N)=O)NC(=O)CNC1=O)S2 [Thia-V(l)GY]
ring closure, yield after HPLC [1, 8]: 19%

C[C@@H]1NC(=O)CNC2=NC=C(Cc3cc(ccc3O)C[C@@H](C(N)=O)NC(=O)[C@H](C)NC1=O)S2 [“Thia-G-A-A-Y” (SEQ ID NO. 9) Macrocycle]
ring closure, yield after HPLC ([1]; from (5-(hydroxymethyl)thiazol-2-yl)-Gly-Ala-Ala-Tyr-NH2?, 19-membered ring, TfOH, MeNO2, 14.7 mM, 25.0 °C, 2 steps): 70.2%

C[C@@H]1NC(=O)CNC2=NC=C(Cc3cc(ccc3O)C[C@@H](C(N)=O)NC1=O)S2 [“Thia-G-A-Y” Macrocycle]
ring closure, yield after HPLC ([1]; from (5-(hydroxymethyl)thiazol-2-yl)-Gly-Ala-Tyr-NH2, 16-membered ring, TfOH, MeNO2, 7.0 mM, 25.0 °C): 56%

(5-(hydroxymethyl)thiazol-2-yl)-Gly-Gly-Tyr-NH2?
ring closure, conversion [3]: 60%
